Test results reported in article PMC4603705, “A bioinspired peptide scaffold with high antibiotic activity and low in vivo toxicity” (Scientific Reports, 2015).
Values after ≈ are worked out from the molar mass of the structure shown. Bridge positions count the residues as written; N and C are the ends. Square brackets hold non-standard residues; d marks the D form. Peptide text beside a SMILES is read from it. * marks the point of attachment. Lauroyl = CCCCCCCCCCCC(=O)*; Nonanoyl = CCCCCCCCC(=O)*; Nle = CCCC[C@H](N)C(=O)O; Dab = NCC[C@H](N)C(=O)O

Tests used:
E. coli ATTC 8739 = type: cell-based, Escherichia coli; settings: ATTC 8739
Description: (§1) MICs were measured after 18–20 h of incubation in sterile 96-well plates (Corning Costar 3598 microtiter plates) in Mueller Hinton Broth (MHB) culture medium, (Difco, USA), according to well known in vitro protocols. Bacterial strains in Table 1 were: P. aeruginosa ATTC 9027, E. coli ATTC 8739, S. aureus ATTC 6538, and E. faecalis ATTC 29212. MICs shown in table 4 were performed by Mary Conrad at Cubist Pharmaceuticals (Lexington, MA) in non-binding surface plates.

[1] = test system: PC12 (treated with NGF, neuronal model); assay: In vitro cytotoxicity (WST-1 cell viability), PC12; type: cell-based; settings: WST-1, NGF treated
Description: (§2) Cell viability assays were performed using the tetrazolium dye WST1 (similar to MTT) on human dermal fibroblasts (3T3 hDF), MDCK (renal model, Madin-Darby canine kidney cells) and PC12 (NGF treated; neuronal model) cell lines and followed standard protocols. Briefly, cells were seeded into 96-well plates, after incubation for 24 h, the medium was replaced with fresh cell culture medium containing the products (range 0-1.2 mg/mL). Negative and positive controls consisted of plates in the absence of the test compound and plates with sodium dodecyl sulfate (0.02% w/v), respectively. Cell viability was assayed with the tetrazolium salt (4-[3-(4- iodophenyl)-2-(4-nitrophenyl)-2H-5-tetrazolio]-1,3-benzene disulfonate) (WST-1). The relative WST-1 absorbance was recorded at 450 nm.
(§3) The products at concentrations ranging from 0 to 1.2 mg/mL were tested (triplicate) and in two independent experiments. The statistical analysis of the data was performed by using non-linear regression (curve-fit) and the model used agreed with the four parameter logistic model (4PL), also called the Hill-Slope model (sigmoid model), with the following equation: […]
(§4) where y is the percent activity and x is the corresponding concentration. The quantities determined where the point estimate IC50 (Half maximal (50%) inhibitory concentration (IC) of a substance, see Table II), the corresponding 95% confidence interval and R^2 (measures the goodness of fit) are shown in the Supplementary Table S2.

P. aeruginosa ATTC 9027 = type: cell-based, Pseudomonas aeruginosa; settings: ATTC 9027
Description: as §1

[2] = test system: human dermic fibroblasts (hDF); assay: In vitro cytotoxicity (WST-1 cell viability), hDF; type: cell-based; settings: for IC50 hDF Exp1: Supplementary Table S2, experiment 1; for IC50 hDF Exp2: Supplementary Table S2, experiment 2; for IC50 hDF: cytotoxicity, WST-1
Description: as §2, §3, §4

[3] = test system: Madine-Darby canine kidney cells (MDCK, renal model); assay: In vitro cytotoxicity (WST-1 cell viability), MDCK; type: cell-based; settings: for IC50 MDCK Exp1: Supplementary Table S2, experiment 1; for IC50 MDCK Exp2: Supplementary Table S2, experiment 2; for IC50 MDCK: cytotoxicity, WST-1
Description: as §2, §3, §4

S. aureus ATTC 6538 = assay: microbe, parasite or virus in culture; type: cell-based, Staphylococcus aureus; settings: ATTC 6538
Description: as §1

E. faecalis ATTC 29212 = assay: microbe, parasite or virus in culture; type: cell-based, Enterococcus faecalis; settings: ATTC 29212
Description: Lipopeptide 39 was chosen for this, as it is known that long fatty acids tend to favor activity against Gram-positive bacteria in polymyxin analogs. […] In summary, new broad-spectrum antimicrobial lipopeptides were achieved.
as §1

P. aeruginosa = test system: P. aeruginosa
Description: (§5) Strains of E. coli and P. aeruginosa with resistance to quinolones and carbapenems as well as multi-drug-resistant bacteria were tested.
as §1

E. coli = test system: E. coli
Description: as §5, §1

S. aureus = assay: microbe, parasite or virus in culture; type: cell-based, Staphylococcus aureus
Description: as §1

[4] = resistant to nalidixic acid, cotrimoxazole and ampicillin

`CCCCCCCCC(=O)N[C@@H](CCCNC(=N)N)C(=O)N[C@H](C(=O)N[C@@H](CCN)C(=O)N[C@H]1CSSC[C@@H](C(N)=O)NC(=O)[C@H](CCN)NC(=O)[C@H](CCCNC(=N)N)NC(=O)[C@H](CC(C)C)NC(=O)[C@@H](Cc2ccccc2)NC(=O)[C@H](CCN)NC1=O)[C@@H](C)O` [Analog 5, nonanoyl-Arg-Thr-Dab-Cys-Dab-Phe-Leu-Arg-Dab-Cys] (Nonanoyl-RT[Dab]C[Dab][dF]LR[Dab]C-NH2; disulfide 4-10) was tested, and the “MIC E. coli” value (E. coli ATTC 8739) was 8 µg/mL (≈ 5.99 µM), the “IC50 PC12” value [1] was 629 µg/mL (≈ 471 µM) and the “MIC P. aeruginosa” value (P. aeruginosa ATTC 9027) was 16 µg/mL (≈ 12 µM). For the same compound, the IC50 hDF Exp1 [2] was 555 µg/mL (≈ 416 µM), the IC50 hDF Exp2 [2] was 513 µg/mL (≈ 384 µM) and the “IC50 hDF” value [2] was 534 µg/mL (≈ 400 µM). The IC50 MDCK Exp1 [3] was 541 µg/mL (≈ 405 µM), the IC50 MDCK Exp2 [3] was 554 µg/mL (≈ 415 µM) and the “IC50 MDCK” value [3] was 548 µg/mL (≈ 410 µM).

`CCCCCCCCC(=O)N[C@@H](CCCNC(=N)N)C(=O)N[C@H](C(=O)N[C@@H](CCCNC(=N)N)C(=O)N[C@H]1CSSC[C@@H](C(N)=O)NC(=O)[C@H](CCN)NC(=O)[C@H](CCCNC(=N)N)NC(=O)[C@H](CC(C)C)NC(=O)[C@@H](Cc2ccccc2)NC(=O)[C@H](CCN)NC1=O)[C@@H](C)O` [Analog 8, nonanoyl-Arg-Thr-Arg-Cys-Dab-Phe-Leu-Arg-Dab-Cys] (Nonanoyl-RTRC[Dab][dF]LR[Dab]C-NH2; disulfide 4-10) was tested, and the “MIC E. coli” value (E. coli ATTC 8739) was 4 µg/mL (≈ 2.87 µM), the “IC50 PC12” value [1] was 595 µg/mL (≈ 428 µM) and the “MIC P. aeruginosa” value (P. aeruginosa ATTC 9027) was 8 µg/mL (≈ 5.75 µM). For the same compound, the IC50 hDF Exp1 [2] was 421 µg/mL (≈ 302 µM), the IC50 hDF Exp2 [2] was 502 µg/mL (≈ 361 µM) and the “IC50 hDF” value [2] was 461 µg/mL (≈ 331 µM). For the same compound, the IC50 MDCK Exp1 [3] was 417 µg/mL (≈ 299 µM), the IC50 MDCK Exp2 [3] was 528 µg/mL (≈ 379 µM) and the “IC50 MDCK” value [3] was 472 µg/mL (≈ 339 µM).

In the case of `CCCCCCCCC(=O)N[C@@H](CCCNC(=N)N)C(=O)N[C@H](C(=O)N[C@@H](CCCNC(=N)N)C(=O)N[C@H]1CSSC[C@@H](C(N)=O)NC(=O)[C@H](CCCNC(=N)N)NC(=O)[C@H](CCCNC(=N)N)NC(=O)[C@H](CC(C)C)NC(=O)[C@@H](Cc2ccccc2)NC(=O)[C@H](CCCNC(=N)N)NC1=O)[C@@H](C)O` [Analog 12] (Nonanoyl-RTRCR[dF]LRRC-NH2; disulfide 4-10), the “MIC E. coli” value (E. coli ATTC 8739) is reported as 8 to 16 µg/mL, the “IC50 PC12” value [1] is reported as 225 µg/mL (≈ 150 µM) and the “MIC P. aeruginosa” value (P. aeruginosa ATTC 9027) is reported as 16 to 32 µg/mL. The IC50 hDF Exp1 [2] was 147 µg/mL (≈ 97.7 µM), the IC50 hDF Exp2 [2] was 181 µg/mL (≈ 120 µM) and the “IC50 hDF” value [2] was 164 µg/mL (≈ 109 µM). For the same compound, the IC50 MDCK Exp1 [3] was 233 µg/mL (≈ 155 µM), the IC50 MDCK Exp2 [3] was 147 µg/mL (≈ 97.7 µM) and the “IC50 MDCK” value [3] was 190 µg/mL (≈ 126 µM). For the same compound, the “MIC S. aureus” value (S. aureus ATTC 6538) was 8 µg/mL (≈ 5.32 µM).

For `CCCCCCCCCCCC(=O)N[C@@H](CCN)C(=O)N[C@H](C(=O)N[C@@H](CCN)C(=O)N[C@H]1CSSC[C@H](C(N)=O)NC(=O)[C@H](CCN)NC(=O)[C@H](CCN)NC(=O)[C@H](CCCC)NC(=O)[C@@H](Cc2ccccc2)NC(=O)[C@H](CCN)NC1=O)[C@@H](C)O` [Analog 39, dodecanoyl-Dab-Thr-Dab-Cys-Dab-Phe-Nle-Dab-Dab-Cys] (Lauroyl-[Dab]T[Dab]C[Dab][dF][Nle][Dab][Dab][dC]-NH2; disulfide 4-10), the “MIC E. coli” value (E. coli ATTC 8739) was 4 µg/mL (≈ 3.16 µM), the “MIC P. aeruginosa” value (P. aeruginosa ATTC 9027) was 1 µg/mL (≈ 0.79 µM) and the “MIC E. faecalis Wild type ATTC 29212” value (E. faecalis ATTC 29212) was 2 to 4 µg/mL. For the same compound, the “MIC P. aeruginosa 38a” value (P. aeruginosa) was 1 µg/mL (≈ 0.79 µM), the “MIC P. aeruginosa 40b” value (P. aeruginosa) was 2 µg/mL (≈ 1.58 µM) and the “MIC E. coli NDM-1” value (E. coli; highly-resistant, New Delhi metallo-beta-lactamase gene) was 0.5 µg/mL (≈ 0.395 µM). For the same compound, the “MIC E. coli VAL 5” value (E. coli; resistant to nalidixic acid) was 0.5 µg/mL (≈ 0.395 µM), the “MIC E. coli MAC 21a” value (E. coli; [4]) was 1 µg/mL (≈ 0.79 µM) and the “MIC E. coli VAL 10” value (E. coli; [4]) was 0.5 µg/mL (≈ 0.395 µM). For the same compound, the “MIC S. aureus DR, MR SAU.1616” value (S. aureus) was 8 µg/mL (≈ 6.32 µM), the “MIC S. aureus DR, MS SAU.278” value (S. aureus) was 2 µg/mL (≈ 1.58 µM) and the “MIC S. aureus MR ATTC 43300” value (S. aureus) was 1 µg/mL (≈ 0.79 µM). For the same compound, the “MIC S. aureus MR SAU.1118” value (S. aureus) was 1 µg/mL (≈ 0.79 µM) and the “MIC S. aureus MS ATTC 29213” value (S. aureus) was 1 µg/mL (≈ 0.79 µM).

In the case of `CCCCCCCCCC(=O)N[C@@H](Cc1c[nH]c2ccccc12)C(=O)N[C@H](CC(N)=O)C(=O)N[C@@H](CC(=O)O)C(=O)N[C@@H]1C(=O)NCC(=O)N[C@@H](CCCN)C(=O)N[C@@H](CC(=O)O)C(=O)N[C@H](C)C(=O)N[C@@H](CC(=O)O)C(=O)NCC(=O)N[C@H](CO)C(=O)N[C@@H]([C@H](C)CC(=O)O)C(=O)N[C@@H](CC(=O)c2ccccc2N)C(=O)O[C@@H]1C` [Daptomycin], the “MIC E. faecalis Wild type ATTC 29212” value (E. faecalis ATTC 29212) is reported as 2 to 4 µg/mL, the “MIC S. aureus DR, MR SAU.1616” value (S. aureus) is reported as 16 µg/mL (≈ 9.87 µM) and the “MIC S. aureus DR, MS SAU.278” value (S. aureus) is reported as 8 µg/mL (≈ 4.94 µM). The “MIC S. aureus MR ATTC 43300” value (S. aureus) was 0.5 µg/mL (≈ 0.309 µM), the “MIC S. aureus MR SAU.1118” value (S. aureus) was 0.5 µg/mL (≈ 0.309 µM) and the “MIC S. aureus MS ATTC 29213” value (S. aureus) was 0.5 µg/mL (≈ 0.309 µM). The “MIC S. aureus” value (S. aureus ATTC 6538) was 1 µg/mL (≈ 0.617 µM).
